Test results as given in the supplement of paper PMC10307832.

Experiments:
Experiment in all cases: relative viability (nuclei count vs DMSO), 5 days (fraction); higher = more cells survive
ABC-1 = test system: ABC-1
In short: (§1)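 Lung cancer cell lines were seeded in 1536-well plates and dosed by pin tool the next day, with either a single drug or a fixed anchor-drug dose combined with five library-drug doses (not always all listed) spaced in √10 steps. Five days later, one step fixed the cells and stained their nuclei (final 0.05% Triton X-100, 1% formaldehyde, 1 ug/ml Hoechst), and nuclei were counted on 4× images. Relative viability is the nuclei count in treated wells divided by the count in vehicle wells, and each value is the median of duplicate plates.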

BEN = test system: BEN
In short: as §1

EPLC-272H = test system: EPLC-272H
In short: as §1

HCC-827 = test system: HCC-827
In short: as §1

HOP-62 = test system: HOP-62
In short: as §1

LU99A = test system: LU99A
In short: as §1

NCI-H1355 = test system: NCI-H1355
In short: as §1

NCI-H1563 = test system: NCI-H1563
In short: as §1

NCI-H1666 = test system: NCI-H1666
In short: as §1

NCI-H1792 = test system: NCI-H1792
In short: as §1

NCI-H1975 = test system: NCI-H1975
In short: as §1

NCI-H2170 = test system: NCI-H2170
In short: as §1

NCI-H23 = test system: NCI-H23
In short: as §1

NCI-H2405 = test system: NCI-H2405
In short: as §1

NCI-H3122 = test system: NCI-H3122
In short: as §1

NCI-H322M = test system: NCI-H322M
In short: as §1

NCI-H358 = test system: NCI-H358
In short: as §1

NCI-H520 = test system: NCI-H520
In short: as §1

NCI-H596 = test system: NCI-H596
In short: as §1

NCI-H647 = test system: NCI-H647
In short: as §1

NCI-H727 = test system: NCI-H727
In short: as §1

NCI-H838 = test system: NCI-H838
In short: as §1

PC-14 = test system: PC-14
In short: as §1

SW 900 = test system: SW 900
In short: as §1

UMC-11 = test system: UMC-11
In short: as §1

For `CCCCCCCCCCCC1=C(O)C(=O)C=C(O)C1=O` [Embelin] + N=C(N)NC(=N)NCCc1ccccc1 [Phenformin] (partner 250 µM), the relative viability (ABC-1; first compound 0.08 µM) was 0.251, the relative viability (ABC-1; first compound 0.8 µM) was 0.237 and the relative viability (ABC-1; first compound 2.53 µM) was 0.256. The relative viability (ABC-1; first compound 8 µM) was 0.194, the relative viability (BEN; first compound 0.08 µM) was 0.267 and the relative viability (BEN; first compound 0.8 µM) was 0.285. It also gave a relative viability (BEN; first compound 2.53 µM) of 0.264, a relative viability (BEN; first compound 8 µM) of 0.263 and a relative viability (EPLC-272H; first compound 0.08 µM) of 0.307. It also gave a relative viability (EPLC-272H; first compound 0.8 µM) of 0.288, a relative viability (EPLC-272H; first compound 2.53 µM) of 0.288 and a relative viability (EPLC-272H; first compound 8 µM) of 0.288. The relative viability (HCC-827; first compound 0.08 µM) was 0.426, the relative viability (HCC-827; first compound 0.8 µM) was 0.451 and the relative viability (HCC-827; first compound 2.53 µM) was 0.477. The relative viability (HCC-827; first compound 8 µM) was 0.443, the relative viability (HOP-62; first compound 0.08 µM) was 0.649 and the relative viability (HOP-62; first compound 0.8 µM) was 0.701. The relative viability (HOP-62; first compound 2.53 µM) was 0.777, the relative viability (HOP-62; first compound 8 µM) was 0.719 and the relative viability (LU99A; first compound 0.08 µM) was 0.856. It also gave a relative viability (LU99A; first compound 0.8 µM) of 0.951, a relative viability (LU99A; first compound 2.53 µM) of 0.942 and a relative viability (LU99A; first compound 8 µM) of 0.757. For the same molecule, the relative viability (NCI-H1355; first compound 0.08 µM) was 0.482, the relative viability (NCI-H1355; first compound 0.8 µM) was 0.535 and the relative viability (NCI-H1355; first compound 2.53 µM) was 0.442. For the same molecule, the relative viability (NCI-H1355; first compound 8 µM) was 0.392, the relative viability (NCI-H1563; first compound 0.08 µM) was 0.711 and the relative viability (NCI-H1563; first compound 0.8 µM) was 0.728. It also gave a relative viability (NCI-H1563; first compound 2.53 µM) of 0.626, a relative viability (NCI-H1563; first compound 8 µM) of 0.578 and a relative viability (NCI-H1666; first compound 0.08 µM) of 0.57. For the same molecule, the relative viability (NCI-H1666; first compound 0.8 µM) was 0.631, the relative viability (NCI-H1666; first compound 2.53 µM) was 0.507 and the relative viability (NCI-H1666; first compound 8 µM) was 0.575. The relative viability (NCI-H1792; first compound 0.8 µM) was 0.424, the relative viability (NCI-H1792; first compound 2.53 µM) was 0.271 and the relative viability (NCI-H1792; first compound 8 µM) was 0.218. For the same molecule, the relative viability (NCI-H1975; first compound 0.08 µM) was 0.445, the relative viability (NCI-H1975; first compound 0.8 µM) was 0.413 and the relative viability (NCI-H1975; first compound 2.53 µM) was 0.405. For the same molecule, the relative viability (NCI-H1975; first compound 8 µM) was 0.384, the relative viability (NCI-H2170; first compound 0.08 µM) was 0.438 and the relative viability (NCI-H2170; first compound 0.8 µM) was 0.489. It also gave a relative viability (NCI-H2170; first compound 2.53 µM) of 0.427, a relative viability (NCI-H2170; first compound 8 µM) of 0.444 and a relative viability (NCI-H23; first compound 0.08 µM) of 0.771. For the same molecule, the relative viability (NCI-H23; first compound 0.8 µM) was 0.753, the relative viability (NCI-H23; first compound 2.53 µM) was 0.882 and the relative viability (NCI-H23; first compound 8 µM) was 0.693. It also gave a relative viability (NCI-H2405; first compound 0.08 µM) of 0.408, a relative viability (NCI-H2405; first compound 0.8 µM) of 0.445 and a relative viability (NCI-H2405; first compound 2.53 µM) of 0.367. It also gave a relative viability (NCI-H2405; first compound 8 µM) of 0.341, a relative viability (NCI-H3122; first compound 0.08 µM) of 0.388 and a relative viability (NCI-H3122; first compound 0.8 µM) of 0.415. For the same molecule, the relative viability (NCI-H3122; first compound 2.53 µM) was 0.384, the relative viability (NCI-H3122; first compound 8 µM) was 0.282 and the relative viability (NCI-H322M; first compound 0.08 µM) was 0.757. The relative viability (NCI-H322M; first compound 0.8 µM) was 0.8, the relative viability (NCI-H322M; first compound 2.53 µM) was 0.913 and the relative viability (NCI-H322M; first compound 8 µM) was 0.677. It also gave a relative viability (NCI-H358; first compound 0.08 µM) of 0.322, a relative viability (NCI-H358; first compound 0.8 µM) of 0.398 and a relative viability (NCI-H358; first compound 2.53 µM) of 0.468. For the same molecule, the relative viability (NCI-H358; first compound 8 µM) was 0.36, the relative viability (NCI-H520; first compound 0.08 µM) was 0.632 and the relative viability (NCI-H520; first compound 0.8 µM) was 0.352. For the same molecule, the relative viability (NCI-H520; first compound 2.53 µM) was 0.742, the relative viability (NCI-H520; first compound 8 µM) was 0.338 and the relative viability (NCI-H596; first compound 0.08 µM) was 0.743. For the same molecule, the relative viability (NCI-H596; first compound 0.8 µM) was 0.744, the relative viability (NCI-H596; first compound 2.53 µM) was 1.03 and the relative viability (NCI-H596; first compound 8 µM) was 0.582. For the same molecule, the relative viability (NCI-H647; first compound 0.08 µM) was 0.632, the relative viability (NCI-H647; first compound 0.8 µM) was 0.721 and the relative viability (NCI-H647; first compound 2.53 µM) was 0.546. For the same molecule, the relative viability (NCI-H647; first compound 8 µM) was 0.472, the relative viability (NCI-H727; first compound 0.08 µM) was 0.563 and the relative viability (NCI-H727; first compound 0.8 µM) was 0.597. It also gave a relative viability (NCI-H727; first compound 2.53 µM) of 0.513, a relative viability (NCI-H727; first compound 8 µM) of 0.5 and a relative viability (NCI-H838; first compound 0.08 µM) of 0.641. It also gave a relative viability (NCI-H838; first compound 0.8 µM) of 0.879, a relative viability (NCI-H838; first compound 2.53 µM) of 0.543 and a relative viability (NCI-H838; first compound 8 µM) of 0.516. It also gave a relative viability (PC-14; first compound 0.08 µM) of 0.604, a relative viability (PC-14; first compound 0.8 µM) of 0.988 and a relative viability (PC-14; first compound 2.53 µM) of 0.465. For the same molecule, the relative viability (PC-14; first compound 8 µM) was 0.393, the relative viability (SW 900; first compound 0.08 µM) was 0.778 and the relative viability (SW 900; first compound 0.8 µM) was 0.733. The relative viability (SW 900; first compound 2.53 µM) was 0.655, the relative viability (SW 900; first compound 8 µM) was 0.481 and the relative viability (UMC-11; first compound 0.08 µM) was 0.33. The relative viability (UMC-11; first compound 0.8 µM) was 0.339, the relative viability (UMC-11; first compound 2.53 µM) was 0.323 and the relative viability (UMC-11; first compound 8 µM) was 0.314.
